Laboratory results taken from US12180476B2, “Use of PIWI-interacting RNA piR-hsa-211106” (Qingdao University, priority 2022, dated 2024).
Entries after “also recorded” stand apart in the source; their conditions may differ.

Key:
A549 cells = test: Tumor-bearing model of a nude mouse, intratumoral treatment; format: in vivo, BALB/c nude mice
Description: This example related to a process of constructing a tumor-bearing model of a nude mouse: 3- to 4-week-old BALB/c nude mice (SiPeiFu Laboratory Animal Technology Co., Ltd) were taken and used for an experiment after adapting to local conditions for 1 week, 2×10^7 of A549 cells were injected subcutaneously into left and right armpits of the mice, and when an implanted tumor reached 50 mm^3, a drug treatment was conducted.
This example related to a drug-targeted treatment process of a tumor-bearing model of a nude mouse: • The nude mice were divided into two groups: a cisplatin experimental group and a normal saline control group, with 5 nude mice in each group; • The nude mice in the experimental group were injected intraperitoneally with cisplatin (5 mg/kg body weight/week), 50 μM of a PIWI-interacting RNA piR-hsa-211106 agonist was injected directly into a tumor on a right side and piR-NC (Shanghai GenePharma Co., Ltd) was injected into a tumor on a left side as a control group of the cisplatin treatment group; • An equal volume of normal saline was injected intraperitoneally into the nude mice in the control group, the PIWI-interacting RNA piR-hsa-211106 agonist was used to treat the tumor as above, the PIWI-interacting RNA piR-hsa-211106 agonist was used for treatment every other day for 28 days, and the tumor volume was measured once a week; the mice were sacrificed at an end of the experiment, and xenografts were peeled off and photographed.

pyruvate carboxylase [1] = test: Western blot analysis of protein expression level in lung adenocarcinoma cells; format: cell-based; details: GAPDH internal reference, FIG. 12
Description: (§1) This example related to a process of transfecting an agonist to lung adenocarcinoma cells: after the lung adenocarcinoma cells were passaged to a cell density of about 30-50%, the agonist was transfected to the lung adenocarcinoma cells by lipo3000. 5 μl (100 pmol) of the agonist was added to an EP tube containing 95 μl of a DMEM medium by pipetting and mixing, 5 μl of lipo3000 was added to the EP tube containing 95 μl of the DMEM medium by pipetting and mixing, the two materials were mixed at a volume ratio of 1:1 to form a transfection mixture, the mixture was allowed to stand at a room temperature for 20 min and added into a culture plate, and an analysis at gene and protein levels was conducted after 48 h. […]
the protein samples were separated by an SDS-PAGE electrophoresis, the separated proteins were transferred to a PVDF membrane, the membrane was blocked with 5% powdered skim milk for 1 h, the membrane was washed, an incubation with a primary antibody (PC, GAPDH) was conducted overnight in a 4° C. refrigerator, the membrane was washed, an incubation with a secondary antibody was conducted at room temperature for 1 h, the membrane was washed, a target band was obtained by ECL chemiluminescence method, the band was subjected to a grayscale scanning by using a Quantity One software and a GAPDH internal reference was used for correction.

[2] = tested on: lung adenocarcinoma cells HCC2279; test: Apoptosis by flow cytometry (Annexin V-FITC/PI); format: cell-based; details: after transfection for two days, FIGS. 8 and 9
Description: (§2) This example related to a process of transfecting an agonist to lung adenocarcinoma cells: after the lung adenocarcinoma cells were passaged to a cell density of about 30-50%, the agonist was transfected to the lung adenocarcinoma cells by lipo3000. […]
(§3) This example related to a detection process of apoptosis of lung adenocarcinoma cells A549 and HCC2279 by a flow cytometry: the lung adenocarcinoma cells were cultured, the cells in the experimental group were transfected with a PIWI-interacting RNA piR-hsa-211106, after transfection for two days, apoptosis was detected by Annexin V-FITC/PI (Shanghai YEASEN Biotechnology Co., Ltd): • (1) after the lung adenocarcinoma cells were digested with a trypsin without EDTA, centrifugation was conducted at 300 g and 4° C. for 5 min and the cells were collected; • (2) the cells were washed twice with a pre-cooled PBS, centrifugation was conducted at 300 g and 4° C. for 5 min each time and 1-5×10^5 cells were collected; • (3) the PBS was pipetted and discarded, and 1× binding buffer was added to resuspend the cells; • (4) annexin V-FITC and a PI staining solution were added, gentle mixing was conducted, and reaction was conducted in dark at room temperature for 10-15 min; and • (5) 1× binding buffer was added, even mixing was conducted, an obtained mixture was placed on ice, and detection was conducted with the flow cytometry within 1 h.

[3] = tested on: lung adenocarcinoma cells A549; test: Apoptosis by flow cytometry (Annexin V-FITC/PI); format: cell-based; details: after transfection for two days, FIGS. 8 and 9
Description: as §2, §3

[4] = tested on: lung adenocarcinoma cells HCC2279; test: Transwell chamber migration assay; format: cell-based; details: after transfection for two days, 24 h migration, FIGS. 4 and 5
Description: (§4) This example related to a process of transfecting an agonist to lung adenocarcinoma cells: after the lung adenocarcinoma cells were passaged to a cell density of about 30-50%, the agonist was transfected to the lung adenocarcinoma cells by lipo3000. 5 μl (100 pmol) of the agonist was added to an EP tube containing 95 μl of a DMEM medium by pipetting and mixing, 5 μl of lipo3000 was added to the EP tube containing 95 μl of the DMEM medium by pipetting and mixing, the two materials were mixed at a volume ratio of 1:1 to form a transfection mixture, the mixture was allowed to stand at a room temperature for 20 min and added into a culture plate, and an analysis at gene and protein levels was conducted after 48 h.

[5] = tested on: lung adenocarcinoma cells A549; test: Transwell chamber migration assay; format: cell-based; details: after transfection for two days, 24 h migration, FIGS. 4 and 5
Description: as §4

pyruvate carboxylase [6] = test: qRT-PCR analysis of gene expression level in lung adenocarcinoma cells; format: cell-based; details: FIG. 11
Description: as §1

[7] = tested on: lung adenocarcinoma cells HCC2279; test: Edu staining proliferation assay; format: cell-based; details: after transfection for two days, FIGS. 2 and 3
Description: as §1

[8] = tested on: lung adenocarcinoma cells A549; test: Edu staining proliferation assay; format: cell-based; details: after transfection for two days, FIGS. 2 and 3
Description: as §1

[9] = tested on: lung adenocarcinoma cells HCC2279; test: Scratch experiment migration assay; format: cell-based; details: after transfection for two days, 0 h and 24 h after scratching, FIGS. 6 and 7
Description: as §4

[10] = tested on: lung adenocarcinoma cells A549; test: Scratch experiment migration assay; format: cell-based; details: after transfection for two days, 0 h and 24 h after scratching, FIGS. 6 and 7
Description: as §4

[11] = tested on: lung adenocarcinoma cells HCC2279; test: CCK8 proliferation activity assay; format: cell-based; details: 0, 1, 2, 3, and 4 days after transfection, FIG. 1
Description: as §4

[12] = tested on: lung adenocarcinoma cells A549; test: CCK8 proliferation activity assay; format: cell-based; details: 0, 1, 2, 3, and 4 days after transfection, FIG. 1
Description: as §4

pyruvate carboxylase [13] = biological target: T1, pyruvate carboxylase (Homo sapiens, UniProt P11498); test: Biotin-coupled probe RNA pull-down assay with western blot; format: binding; details: biotinylated piR-hsa-211106 probe, lung adenocarcinoma cell lysate; FIG. 10
T1 construct: 1×10^7 lung adenocarcinoma cells were harvested, lysed and subjected to an ultrasonic treatment; endogenous in cells
T1 sequence (P11498 21-1178): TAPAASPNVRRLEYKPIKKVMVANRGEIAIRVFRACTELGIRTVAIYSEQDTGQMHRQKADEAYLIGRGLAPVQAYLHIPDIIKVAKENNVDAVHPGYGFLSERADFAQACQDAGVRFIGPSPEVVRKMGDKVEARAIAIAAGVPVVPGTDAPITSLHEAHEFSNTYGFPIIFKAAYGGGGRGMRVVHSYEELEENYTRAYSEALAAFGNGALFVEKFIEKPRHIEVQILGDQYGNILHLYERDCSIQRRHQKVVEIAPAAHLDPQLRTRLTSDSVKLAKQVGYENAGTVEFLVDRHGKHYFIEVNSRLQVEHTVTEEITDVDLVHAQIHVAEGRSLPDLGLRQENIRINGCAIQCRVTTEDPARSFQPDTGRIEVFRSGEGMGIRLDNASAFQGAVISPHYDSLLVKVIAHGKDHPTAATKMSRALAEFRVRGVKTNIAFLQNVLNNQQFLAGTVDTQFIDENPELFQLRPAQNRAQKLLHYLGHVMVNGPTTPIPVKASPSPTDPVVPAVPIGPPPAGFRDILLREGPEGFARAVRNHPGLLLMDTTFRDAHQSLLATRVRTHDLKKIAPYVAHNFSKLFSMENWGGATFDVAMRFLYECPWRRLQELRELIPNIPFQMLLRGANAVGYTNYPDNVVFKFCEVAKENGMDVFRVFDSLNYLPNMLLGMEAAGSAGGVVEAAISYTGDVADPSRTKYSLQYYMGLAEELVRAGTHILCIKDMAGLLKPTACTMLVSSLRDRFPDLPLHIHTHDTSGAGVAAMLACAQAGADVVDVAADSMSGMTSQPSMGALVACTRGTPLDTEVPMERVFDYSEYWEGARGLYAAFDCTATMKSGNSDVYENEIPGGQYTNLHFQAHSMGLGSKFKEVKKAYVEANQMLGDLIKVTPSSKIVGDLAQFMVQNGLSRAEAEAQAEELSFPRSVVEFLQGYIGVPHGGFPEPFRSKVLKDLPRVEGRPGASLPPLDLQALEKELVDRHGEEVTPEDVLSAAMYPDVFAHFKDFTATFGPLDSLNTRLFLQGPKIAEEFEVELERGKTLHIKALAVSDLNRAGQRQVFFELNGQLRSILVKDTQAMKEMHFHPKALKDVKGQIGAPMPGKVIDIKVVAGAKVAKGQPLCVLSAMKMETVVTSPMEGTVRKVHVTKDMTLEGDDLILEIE

[14] = injected into tumors in nude mice, versus control groups

## piR-hsa-211106: PIWI-interacting RNA, SEQ ID NO:1 TCCGGCTCGAAGGACTTCGTCTGTAATTTT; used as double-strand agonist with cholesterol, thio skeleton and methoxy modifications (cholesterol, phosphorothioate and 2'-OMe modifications, pattern not given here, duplex)
A549 cells; 50 μM agonist injected directly into tumor every other day for 28 days, cisplatin 5 mg/kg body weight/week intraperitoneally, FIGS. 13, 14 and 15
  therapeutic effect compared with positive control cisplatin: comparable to that of the positive control group treated with cisplatin; also recorded: comparable therapeutic effect as the positive control drug cisplatin
A549 cells; A549 tumor in nude mice, agonist intratumoral every other day for 28 days
  growth of lung adenocarcinoma in vivo: capable of inhibiting growth of lung adenocarcinoma in vivo
A549 cells; agonist intratumoral plus cisplatin 5 mg/kg body weight/week intraperitoneally, 28 days
  effect in combination with cisplatin: increases chemical sensitivity of the chemotherapeutic drug cisplatin and has a synergistic effect
A549 cells; [14]
  tumor volume: smaller than those of the control groups
  tumor weight: smaller than those of the control groups
Pyruvate carboxylase [1]
  expression of pyruvate carboxylase at a protein level (WB): can regulate an expression of a pyruvate carboxylase at a protein level
[2]
  apoptosis (flow cytometry): significantly cause the apoptosis
[3]
  apoptosis (flow cytometry): significantly cause the apoptosis
[4]
  migration ability (Transwell chamber, migrated cells counted): significantly inhibit the migration ability
[5]
  migration ability (Transwell chamber, migrated cells counted): significantly inhibit the migration ability
Pyruvate carboxylase [6]
  expression of pyruvate carboxylase (gene expression level, qRT-PCR): significantly inhibit an expression
[7]
  proportion of proliferating cells (Edu staining): significantly inhibit the growth
[8]
  proportion of proliferating cells (Edu staining): significantly inhibit the growth
[9]
  migration ability (scratch experiment, relative migration rate): significantly inhibit the migration ability
[10]
  migration ability (scratch experiment, relative migration rate): significantly inhibit the migration ability
[11]
  cell proliferation activity (OD value at 450 nm, CCK8): significantly inhibit the proliferation
[12]
  cell proliferation activity (OD value at 450 nm, CCK8): significantly inhibit the proliferation
Pyruvate carboxylase [13]
  binding to pyruvate carboxylase (RNA pull-down): binds to the PC; also recorded: can bind to a pyruvate carboxylase
